The results in this text go back to PubChem BioAssay (NCI).

Among the test systems are EKVX NSCLC; HCC-2998 colon; HT29 colon; NCI/ADR-RES ovarian; OVCAR-8 ovarian; PC-3 prostate; SK-MEL-28 melanoma; SK-OV-3 ovarian; SNB-75 CNS; SR leukemia.
Common to all, as to test: growth of human tumour cells (NCI), 48 h

Each structure is given as a SMILES string.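 Assay format: 96-well plates, 48-hour exposure. TGI denotes the concentration required for complete inhibition of growth.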 Some results are limits rather than exact numbers.

Consider `O=C1/C(=C/c2cccc([N+](=O)[O-])c2)N=C(c2ccccc2)N1c1nc2ccc(Sc3ccccc3)cc2[nH]1`, for which the TGI with EKVX NSCLC, with HCC-2998 colon, in the test with HT29 colon, in the test on NCI/ADR-RES ovarian, in the test with OVCAR-8 ovarian and in the test with PC-3 prostate was over 100 µM throughout. In addition, the TGI in the test on SK-MEL-28 melanoma, in the test with SK-OV-3 ovarian, with SNB-75 CNS and with SR leukemia was over 100 µM in each case.
As for `N=c1oc2ccc3ccccc3c2cc1-c1nc2ccccc2c(=O)[nH]1`, the TGI in the test on EKVX NSCLC was over 100 µM; in the test on HCC-2998 colon, over 100 µM; with HT29 colon it was 39.5 µM; in the test with NCI/ADR-RES ovarian, over 100 µM; in the test on OVCAR-8 ovarian it was over 100 µM; with PC-3 prostate it was over 100 µM. The TGI is over 100 µM in the test on SK-MEL-28 melanoma, over 100 µM with SK-OV-3 ovarian, 19.6 µM with SNB-75 CNS and over 100 µM in the test on SR leukemia.
As to `O=C(O)c1ccc2c(O)c(O)ccc2c1`, the TGI with EKVX NSCLC is 47.7 µM; in the test on HCC-2998 colon, over 60.9 µM; in the test on HT29 colon, 21.2 µM; in the test with NCI/ADR-RES ovarian, 55.3 µM; in the test on OVCAR-8 ovarian it was 47.9 µM; in the test on PC-3 prostate, over 78.8 µM. For the same compound, the TGI in the test on SK-MEL-28 melanoma was over 100 µM; with SK-OV-3 ovarian it was over 72.5 µM; in the test on SNB-75 CNS it was 22.4 µM; in the test with SR leukemia, 13.8 µM.
`O=C1CCCC2=C1CC1=C(CCCC1=O)N2c1ccc(Cl)cc1`: the TGI with EKVX NSCLC, with HCC-2998 colon, in the test on HT29 colon, with NCI/ADR-RES ovarian, with OVCAR-8 ovarian and with PC-3 prostate was over 100 µM in each case. Besides, the TGI in the test on SK-MEL-28 melanoma, in the test with SK-OV-3 ovarian, in the test on SNB-75 CNS and in the test with SR leukemia was over 100 µM in each case.
Regarding `CCN(CC)Cc1cc(N=Nc2c(O)ccc3c(N=Nc4ccc(O)c(CN(CC)CC)c4)c(O)ccc23)ccc1O`, the TGI is 21.2 µM in the test with EKVX NSCLC; 5.18 µM in the test with HCC-2998 colon; 9.31 µM in the test with HT29 colon; 33 µM with NCI/ADR-RES ovarian; 5.27 µM in the test on OVCAR-8 ovarian; over 41.1 µM with PC-3 prostate. The TGI in the test with SK-MEL-28 melanoma was determined as 20 µM; in the test with SK-OV-3 ovarian, 6.85 µM; in the test on SNB-75 CNS it was 27.7 µM; in the test with SR leukemia it was 8.53 µM.
Regarding `CCC1(O)C(=O)OCc2c1cc1n(c2=O)Cc2cc3cc4c(cc3nc2-1)OCO4` (stereo not given), the TGI in the test with EKVX NSCLC was 4.27 µM; in the test on HCC-2998 colon, 0.396 µM; in the test with HT29 colon, 19.9 µM; in the test on NCI/ADR-RES ovarian it was 0.0277 µM; in the test on OVCAR-8 ovarian, 1.29 µM; with PC-3 prostate, over 100 µM. Also, the TGI in the test with SK-MEL-28 melanoma amounted to 18.9 µM; in the test with SK-OV-3 ovarian, 1.81 µM; in the test with SNB-75 CNS, 0.0369 µM; in the test on SR leukemia, 3.79 µM.
Take `CN(C)N1C(=O)C(=O)N(c2cccc3ccccc23)C1=O`: the TGI in the test on EKVX NSCLC, in the test on HCC-2998 colon, in the test with HT29 colon, with NCI/ADR-RES ovarian, in the test with OVCAR-8 ovarian and in the test on PC-3 prostate was over 10 µM in each case. Besides, the TGI in the test with SK-MEL-28 melanoma, in the test with SK-OV-3 ovarian, in the test on SNB-75 CNS and in the test on SR leukemia was over 10 µM throughout.
On to `COc1ccc(-c2cc(-c3ccc(C)cc3)n(C3OC(COC(C)=O)C(OC(C)=O)C(OC(C)=O)C3OC(C)=O)c(=S)c2C#N)cc1` (stereo not given), for which the TGI in the test on EKVX NSCLC, in the test on HCC-2998 colon, in the test on HT29 colon, with NCI/ADR-RES ovarian, with OVCAR-8 ovarian and with PC-3 prostate was over 100 µM in each case. Moreover, the TGI in the test with SK-MEL-28 melanoma was over 100 µM; in the test on SK-OV-3 ovarian, over 100 µM; in the test on SNB-75 CNS, 92 µM; in the test on SR leukemia it was over 100 µM.
Regarding `Cc1ccc(C(=O)Nc2ccc(S(=O)(=O)O)c3cc(S(=O)(=O)O)cc(S(=O)(=O)O)c23)cc1NC(=O)c1cccc(NC(=O)Nc2cccc(C(=O)Nc3cc(C(=O)Nc4ccc(S(=O)(=O)O)c5cc(S(=O)(=O)O)cc(S(=O)(=O)O)c45)ccc3C)c2)c1`, the TGI in the test on EKVX NSCLC, in the test with HCC-2998 colon, in the test on HT29 colon, in the test on NCI/ADR-RES ovarian, with OVCAR-8 ovarian and in the test on PC-3 prostate was over 100 µM throughout. For the same compound, the TGI with SK-MEL-28 melanoma, with SK-OV-3 ovarian, with SNB-75 CNS and with SR leukemia was over 100 µM throughout.
Regarding `O=C(CCCc1cccc2[nH]c3c(c12)CN(Cc1ccccc1)CC3)c1ccc(F)cc1`, the TGI with EKVX NSCLC is over 100 µM; in the test on HCC-2998 colon, 38.5 µM; in the test with HT29 colon, over 45.8 µM; with NCI/ADR-RES ovarian it was over 100 µM; with OVCAR-8 ovarian, over 100 µM; in the test with PC-3 prostate, over 100 µM. Further, the TGI with SK-MEL-28 melanoma, in the test on SK-OV-3 ovarian, with SNB-75 CNS and in the test on SR leukemia was over 100 µM throughout.
On to `CC(C#N)(NO)C(C)(C#N)NO` (stereo not given), for which the TGI in the test with EKVX NSCLC, in the test with HCC-2998 colon, with HT29 colon, in the test on NCI/ADR-RES ovarian, in the test with OVCAR-8 ovarian and in the test on PC-3 prostate was over 100 µM each time. Further, the TGI in the test with SK-MEL-28 melanoma, in the test with SK-OV-3 ovarian, in the test on SNB-75 CNS and in the test on SR leukemia was over 100 µM in each case.
